Laboratory results as given in patent US8871753B2, “Macrocyclic compounds and their use as kinase inhibitors” (Incyte Corporation, priority 2008, dated 2014).
Where a name gives a salt, the structure may show the parent alone. Read-outs that look alike come from different tables or passages of the source.

Columns and labels:
Assay type in all cases: biochemical
[1] = molecular target: T1, human JAK1 (a.a. 837-1142) (Homo sapiens, UniProt P23458); assay: In vitro JAK kinase assay (HTRF, phosphorylation of a biotinylated peptide), JAK1; details: read-out: JAK1 IC50
T1 construct: human JAK1 (a.a. 837-1142); His tag (N); made in house; host or cells: insect cells (baculovirus)
T1 sequence (P23458 849-1154): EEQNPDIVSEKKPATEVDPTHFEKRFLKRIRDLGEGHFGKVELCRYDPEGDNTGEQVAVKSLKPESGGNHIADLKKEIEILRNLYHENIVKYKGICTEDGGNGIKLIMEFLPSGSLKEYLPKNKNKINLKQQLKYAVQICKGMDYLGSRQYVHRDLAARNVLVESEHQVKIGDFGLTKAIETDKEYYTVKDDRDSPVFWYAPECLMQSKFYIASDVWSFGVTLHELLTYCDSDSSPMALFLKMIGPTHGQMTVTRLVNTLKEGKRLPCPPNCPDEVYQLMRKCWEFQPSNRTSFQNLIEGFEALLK
How it was run: (§1)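 Kinase activity was measured as phosphorylation of a biotinylated peptide, with ATP at 90 μM for JAK1, 30 μM for JAK2 and 3 μM for JAK3. Reactions ran 1 hr at room temperature, were stopped with EDTA plus SA-APC and Eu-Py20, and were read by HTRF after 40 minutes of antibody binding.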

[2] = molecular target: T2, human JAK2 (a.a. 828-1132) (Homo sapiens, UniProt O60674); assay: In vitro JAK kinase assay (HTRF, phosphorylation of a biotinylated peptide), JAK2
T2 construct: JAK2 (a.a. 828-1132); His tag (N); made in house; host or cells: insect cells (baculovirus)
T2 sequence (O60674 828-1132): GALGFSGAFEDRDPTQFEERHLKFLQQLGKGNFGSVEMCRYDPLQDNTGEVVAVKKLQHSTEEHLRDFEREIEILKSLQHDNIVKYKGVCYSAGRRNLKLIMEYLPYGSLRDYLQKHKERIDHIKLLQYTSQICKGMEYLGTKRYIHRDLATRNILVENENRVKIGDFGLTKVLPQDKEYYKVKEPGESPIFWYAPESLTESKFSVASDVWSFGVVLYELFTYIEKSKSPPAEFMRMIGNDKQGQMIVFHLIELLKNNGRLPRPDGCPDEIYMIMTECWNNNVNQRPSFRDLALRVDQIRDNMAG
How it was run: as §1

[3] = molecular target: T3, human JAK3 (a.a. 781-1124) (Homo sapiens, UniProt P52333); assay: In vitro JAK kinase assay (HTRF, phosphorylation of a biotinylated peptide), JAK3
T3 construct: JAK3 (a.a. 781-1124); His tag (N); made in house; host or cells: insect cells (baculovirus)
T3 sequence (P52333 781-1124): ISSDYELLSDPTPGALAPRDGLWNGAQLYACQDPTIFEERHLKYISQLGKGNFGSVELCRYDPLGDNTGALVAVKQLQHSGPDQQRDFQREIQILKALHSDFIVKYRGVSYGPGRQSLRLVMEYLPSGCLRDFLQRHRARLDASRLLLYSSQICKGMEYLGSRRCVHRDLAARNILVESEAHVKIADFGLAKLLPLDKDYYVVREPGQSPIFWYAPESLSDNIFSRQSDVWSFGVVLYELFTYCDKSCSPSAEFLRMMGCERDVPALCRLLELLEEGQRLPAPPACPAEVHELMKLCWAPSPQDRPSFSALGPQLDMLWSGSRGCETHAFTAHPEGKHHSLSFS
How it was run: as §1

TYK2 = TYK2 (Homo sapiens, UniProt P29597); assay: TYK2 kinase inhibition (Table A1)
TYK2, sequence (P29597 whole entry): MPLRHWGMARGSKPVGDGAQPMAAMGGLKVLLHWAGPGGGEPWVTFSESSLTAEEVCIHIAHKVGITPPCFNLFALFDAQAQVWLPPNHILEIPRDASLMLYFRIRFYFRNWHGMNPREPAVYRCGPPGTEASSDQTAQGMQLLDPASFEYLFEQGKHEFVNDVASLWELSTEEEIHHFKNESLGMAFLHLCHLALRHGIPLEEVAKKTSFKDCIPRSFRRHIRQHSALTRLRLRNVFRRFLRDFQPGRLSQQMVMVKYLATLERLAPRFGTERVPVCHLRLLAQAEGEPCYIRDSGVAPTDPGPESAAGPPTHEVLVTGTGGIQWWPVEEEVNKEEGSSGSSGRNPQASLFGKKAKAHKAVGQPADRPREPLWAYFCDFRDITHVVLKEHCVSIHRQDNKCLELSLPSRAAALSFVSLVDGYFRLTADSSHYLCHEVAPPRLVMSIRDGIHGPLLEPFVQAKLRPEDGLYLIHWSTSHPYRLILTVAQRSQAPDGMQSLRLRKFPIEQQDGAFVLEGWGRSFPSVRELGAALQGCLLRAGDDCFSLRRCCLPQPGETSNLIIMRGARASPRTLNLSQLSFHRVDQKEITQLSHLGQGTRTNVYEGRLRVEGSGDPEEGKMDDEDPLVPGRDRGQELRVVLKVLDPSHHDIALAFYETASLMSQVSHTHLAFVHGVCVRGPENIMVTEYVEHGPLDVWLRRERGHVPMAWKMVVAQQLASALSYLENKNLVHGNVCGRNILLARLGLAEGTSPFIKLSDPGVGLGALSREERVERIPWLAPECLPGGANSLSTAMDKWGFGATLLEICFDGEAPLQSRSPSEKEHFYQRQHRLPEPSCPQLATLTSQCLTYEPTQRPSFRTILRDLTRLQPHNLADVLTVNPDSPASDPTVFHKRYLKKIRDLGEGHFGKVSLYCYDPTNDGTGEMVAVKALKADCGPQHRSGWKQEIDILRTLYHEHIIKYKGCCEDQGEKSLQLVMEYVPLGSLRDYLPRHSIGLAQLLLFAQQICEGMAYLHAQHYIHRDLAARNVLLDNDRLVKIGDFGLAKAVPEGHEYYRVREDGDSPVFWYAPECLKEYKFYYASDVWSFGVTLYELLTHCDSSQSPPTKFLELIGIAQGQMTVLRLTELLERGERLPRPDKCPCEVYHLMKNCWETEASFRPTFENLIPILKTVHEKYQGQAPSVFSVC

[4] = molecular target: T4, Recombinant Human Anaplastic Lymphoma Kinase (Homo sapiens, UniProt Q9UM73); assay: ALK HTRF kinase assay
T4 construct: purchased Invitrogen, Carlsbad, Calif
T4 sequence (Q9UM73 19-1620): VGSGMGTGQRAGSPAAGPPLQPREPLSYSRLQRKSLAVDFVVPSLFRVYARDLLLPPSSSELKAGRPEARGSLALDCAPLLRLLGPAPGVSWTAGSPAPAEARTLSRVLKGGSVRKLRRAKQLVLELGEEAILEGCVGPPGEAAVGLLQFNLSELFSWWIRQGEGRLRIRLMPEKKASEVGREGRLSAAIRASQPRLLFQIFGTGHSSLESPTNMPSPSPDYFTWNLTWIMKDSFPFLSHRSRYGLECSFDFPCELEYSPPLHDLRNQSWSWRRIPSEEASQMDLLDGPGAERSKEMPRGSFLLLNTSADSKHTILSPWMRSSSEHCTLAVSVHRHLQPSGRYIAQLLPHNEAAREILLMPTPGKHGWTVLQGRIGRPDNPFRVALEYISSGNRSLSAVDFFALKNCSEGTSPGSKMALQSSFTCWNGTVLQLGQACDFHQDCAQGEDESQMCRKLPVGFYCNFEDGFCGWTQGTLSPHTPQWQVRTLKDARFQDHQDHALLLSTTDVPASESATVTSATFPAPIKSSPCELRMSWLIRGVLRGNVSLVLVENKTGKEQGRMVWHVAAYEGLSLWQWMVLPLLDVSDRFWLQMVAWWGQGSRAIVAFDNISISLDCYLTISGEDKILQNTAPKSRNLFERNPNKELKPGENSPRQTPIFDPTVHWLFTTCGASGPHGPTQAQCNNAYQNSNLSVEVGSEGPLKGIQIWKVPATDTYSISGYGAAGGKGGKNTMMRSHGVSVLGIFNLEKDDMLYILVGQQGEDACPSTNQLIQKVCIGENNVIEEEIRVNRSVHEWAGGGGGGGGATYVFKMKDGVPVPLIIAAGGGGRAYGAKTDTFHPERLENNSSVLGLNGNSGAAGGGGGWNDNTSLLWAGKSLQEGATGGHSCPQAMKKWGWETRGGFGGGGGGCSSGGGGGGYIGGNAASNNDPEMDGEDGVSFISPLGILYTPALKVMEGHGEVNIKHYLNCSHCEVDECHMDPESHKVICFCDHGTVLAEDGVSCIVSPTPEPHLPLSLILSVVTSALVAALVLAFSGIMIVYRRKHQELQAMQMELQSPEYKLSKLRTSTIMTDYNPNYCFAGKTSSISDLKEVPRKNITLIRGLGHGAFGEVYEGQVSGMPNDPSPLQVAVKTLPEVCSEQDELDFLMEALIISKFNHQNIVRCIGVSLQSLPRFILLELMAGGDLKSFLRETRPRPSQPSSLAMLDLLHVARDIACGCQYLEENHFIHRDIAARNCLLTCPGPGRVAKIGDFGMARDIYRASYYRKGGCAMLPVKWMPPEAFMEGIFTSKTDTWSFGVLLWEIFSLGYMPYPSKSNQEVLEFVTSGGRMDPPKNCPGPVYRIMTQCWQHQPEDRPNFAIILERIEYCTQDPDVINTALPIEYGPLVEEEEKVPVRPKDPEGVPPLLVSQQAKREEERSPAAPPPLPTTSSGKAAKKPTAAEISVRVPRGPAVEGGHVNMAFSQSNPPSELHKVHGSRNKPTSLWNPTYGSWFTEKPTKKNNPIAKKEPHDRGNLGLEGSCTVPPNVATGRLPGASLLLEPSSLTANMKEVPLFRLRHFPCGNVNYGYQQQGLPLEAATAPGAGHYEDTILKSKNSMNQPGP
How it was run: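 Recombinant human ALK phosphorylated a biotinylated synthetic peptide. Phosphotyrosine was detected by TR-FRET between a Eu-labelled anti-phosphotyrosine antibody and streptavidin-allophycocyanin. IC50 values came from fitting signal against inhibitor concentration to a four-parameter logistic equation with variable Hill slope.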

[5] = method AA1 (90 μM ATP) or AA2 (1000 μM ATP), not stated per value
[6] = method AA1 (30 μM ATP) or AA2 (1000 μM ATP), not stated per value
[7] = method AA1 (3 μM ATP) or AA2 (1000 μM ATP), not stated per value
[8] = compound at 500 nM or 1 mM, 90 μM ATP
[9] = compound at a concentration of 500 nM or 1 mM (not specified), cells shown as percentage
[10] = Table B1, cells without percent sign

Compound | IC50 ([1]; Table B1) | IC50 ([2]; Table B1) | IC50 ([3]; Table B1) | IC50 (TYK2; Table B1) | ALK % of inhibition at a concentration of 500 nM or 1 mM [4, 9] | further results
Cc1cc(C(=O)N2CCC(CCC(=O)Nc3ccc4cc3CCc3cccc(c3)Nc3ncc(Cl)c(n3)N4)CC2)no1 [Example A124, N-[6-Chloro-2,4,8,22-tetraazatetracyclo[14.3.1.1(3,7).1(9,13)]docosa-1(20),3(22),4,6,9(21),10,12,16,18-nonaen-12-yl]-3-{1-[(5-methylisoxazol-3-yl)carbonyl]piperidin-4-yl}propanamide trifluoroacetate] | – | – | – | – | – | IC50 [1, 5]: 0.6 nM; IC50 [2, 6]: 2.5 nM; IC50 [3, 7]: 39 nM; IC50 (TYK2): 5.4 nM; ALK % of inhibition at a concentration of 500 nM or 1 mM [4, 8]: 34%
O=S(=O)(Nc1cc2cc(c1)OCCSc1cccc(c1)Nc1nc(ncc1Cl)N2)c1ccccc1 [Example D68, N-[6-Chloro-17-oxa-14-thia-2,4,8,24-tetraazatetracyclo[16.3.1.1(3,7).1(9,13)]tetracosa-1(22),3(24),4,6,9(23),10,12,18,20-nonaen-20-yl]benzenesulfonamide trifluoroacetate] | – | – | – | – | – | IC50 ([1]; Table D1): 14 nM; IC50 ([2]; Table D1): 5.8 nM; IC50 ([3]; Table D1): 36 nM; IC50 (TYK2; Table D1): 32 nM; IC50 ([4]; Table D1, 90 μM ATP): 340 nM
O=C(Nc1ccc2cc1CCc1cncc(c1)Nc1ncc(Cl)c(n1)N2)N1CCN(c2ncccn2)CC1 [Example B309, N-[6-Chloro-2,4,8,18,22-pentaazatetracyclo[14.3.1.1(3,7).1(9,13)]docosa-1(20),3(22),4,6,9(21),10,12,16,18-nonaen-12-yl]-4-pyrimidin-2-ylpiperazine-1-carboxamide tris(trifluoroacetate)] | 21 nM | 133 nM | > 400 nM | 67 nM | – | ALK % of inhibition at a concentration of 500 nM or 1 mM ([4]; percentage inhibition of the example compound at a concentration of 500 nM or 1 mM (not specified which)): 68%
CN(C(=O)Nc1ccc2cc1CCc1cncc(c1)Nc1ncc(Cl)c(n1)N2)[C@H]1CCNC1 [Example B288, N′-[6-Chloro-2,4,8,18,22-pentaazatetracyclo[14.3.1.1(3,7).1(9,13)]docosa-1(20),3(22),4,6,9(21),10,12,16,18-nonaen-12-yl]-N-methyl-N-[(3S)-pyrrolidin-3-yl]urea tris(trifluoroacetate)] | 42 nM | 180 nM | > 200 nM | > 200 nM | 18% | –
NS(=O)(=O)N1CC[C@@H](NC(=O)Nc2ccc3cc2CCc2cccc(c2)Nc2ncc(Cl)c(n2)N3)C1 [Example B179, (3R)-3-[({[6-Chloro-2,4,8,22-tetraazatetracyclo[14.3.1.1(3,7).1(9,13)]docosa-1(20),3(22),4,6,9(21),10,12,16,18-nonaen-12-yl]amino}carbonyl)amino]pyrrolidine-1-sulfonamide trifluoroacetate] | 0.23 nM | 0.84 nM | 1.3 nM | 2.8 nM | 43% | –
O=S(=O)(Cc1ccccc1)Nc1ccc2cc1CCc1cccc(c1)Nc1ncc(Cl)c(n1)N2 [Example B147, N-[6-Chloro-2,4,8,22-tetraazatetracyclo[14.3.1.1(3,7).1(9,13)]docosa-1(20), 3(22),4,6,9(21),10,12,16,18-nonaen-12-yl]-1-phenylmethanesulfonamide trifluoroacetate] | 2.5 nM | 1.5 nM | 37 nM | 6.6 nM | – | IC50 [4, 10]: 1800 nM
Cc1ncoc1C(=O)Nc1cc2cc(c1)Nc1nc(ncc1Cl)Nc1cccc(c1)CC2 [Example B210, N-[6-Chloro-2,4,8,22-tetraazatetracyclo[14.3.1.1(3,7).1(9,13)]docosa-1(20),3(22),4,6,9(21),10,12,16,18-nonaen-11-yl]-4-methyl-1,3-oxazole-5-carboxamide trifluoroacetate] | 62 nM | 42 nM | 76 nM | 357 nM | – | IC50 [4, 10]: > 1000 nM
CN1CCOc2cc(S(=O)(=O)Nc3ccc4cc3CCc3cccc(c3)Nc3ncc(Cl)c(n3)N4)ccc21 [Example B165, N-[6-Chloro-2,4,8,22-tetraazatetracyclo[14.3.1.1(3,7).1(9,13)]docosa-1(20),3(22),4,6,9(21),10,12,16,18-nonaen-12-yl]-4-methyl-3,4-dihydro-2H-1,4-benzoxazine-7-sulfonamide trifluoroacetate] | 13 nM | 10 nM | 83 nM | 20 nM | 10% | –
CS(=O)(=O)NCCNC(=O)Nc1ccc2cc1CCc1cccc(c1)Nc1ncc(Cl)c(n1)N2 [Example B187, N-{2-[({[6-Chloro-2,4,8,22-tetraazatetracyclo[14.3.1.1(3,7).1(9,13)]docosa-1(20),3(22),4,6,9(21),10,12,16,18-nonaen-12-yl]amino}carbonyl)amino]ethyl}methanesulfonamide trifluoroacetate] | 0.9 nM | 0.4 nM | 2.4 nM | 1.9 nM | 29% | –
N#Cc1ccc(C(=O)N2CCC(CC(=O)Nc3ccc4cc3CCc3cccc(c3)Nc3ncc(Cl)c(n3)N4)CC2)cc1 [Example A186, N-[6-Chloro-2,4,8,22-tetraazatetracyclo[14.3.1.1(3,7).1(9,13)]docosa-1(20),3(22),4,6,9(21),10,12,16,18-nonaen-12-yl]-2-[1-(4-cyanobenzoyl)piperidin-4-yl]acetamide trifluoroacetate] | – | – | – | – | – | IC50 [1, 5]: 58 nM; IC50 [2, 6]: 185 nM; IC50 [3, 7]: > 200 nM; IC50 (TYK2): > 200 nM; ALK % of inhibition at a concentration of 500 nM or 1 mM [4, 8]: 38%
CCOC(=O)c1coc(Nc2ccc3cc2CCc2cccc(c2)Nc2ncc(Cl)c(n2)N3)n1 [Example B278, Ethyl 2-{[6-chloro-2,4,8,22-tetraazatetracyclo[14.3.1.1(3,7).1(9,13)]docosa-1(20),3(22),4,6,9(21),10,12,16,18-nonaen-12-yl]amino}-1,3-oxazole-4-carboxylate bis(trifluoroacetate)] | 47 nM | 126 nM | 1850 nM | 222 nM | 10% | –
COc1ccc(N2CCN(C(=O)Nc3ccc4cc3CCc3cncc(c3)Nc3ncc(Cl)c(n3)N4)CC2)cc1 [Example B299, N-[6-Chloro-2,4,8,18,22-pentaazatetracyclo[14.3.1.1(3,7).1(9,13)]docosa-1(20),3(22),4,6,9(21),10,12,16,18-nonaen-12-yl]-4-(4-methoxyphenyl)piperazine-1-carboxamide tris(trifluoroacetate)] | 30 nM | 180 nM | > 400 nM | 82 nM | 74% | –
O=C1Cc2cccc(c2)Nc2ncc(Cl)c(n2)Nc2cccc(c2)N1 [Example C10, 6-Chloro-2,4,8,14,23-pentaazatetracyclo[15.3.1.1(3,7).1(9,13)]tricosa-1(21),3(23),4,6,9(22),10,12,17,19-nonaen-15-one trifluoroacetate] | – | – | – | – | – | IC50 [1]: 154 nM; IC50 [2]: 303 nM; IC50 [3]: > 1000 nM; IC50 (TYK2): 60 nM; IC50 [4]: > 10000 nM
O=C(Nc1ccccn1)Nc1ccc2cc1CCc1cccc(c1)Nc1ncc(Cl)c(n1)N2 [Example B253, N-[6-Chloro-2,4,8,22-tetraazatetracyclo[14.3.1.1(3,7).1(9,13)]docosa-1(20),3(22),4,6,9(21),10,12,16,18-nonaen-12-yl]-N′-pyridin-2-ylurea bis(trifluoroacetate)] | 90 nM | 72 nM | 695 nM | 173 nM | 4.9% | –
NC1CCN(c2ccnc(Nc3ccc4cc3CCc3cccc(c3)Nc3ncc(Cl)c(n3)N4)n2)CC1 [Example B281, N-[4-(4-Aminopiperidin-1-yl)pyrimidin-2-yl]-6-chloro-2,4,8,22-tetraazatetracyclo[14.3.1.1(3,7).1(9,13)]docosa-1(20),3(22),4,6,9(21),10,12,16,18-nonaen-12-amine tris(trifluoroacetate)] | 15 nM | 150 nM | 1400 nM | 2300 nM | 24% | –
O=C(Nc1ccc2cc1CCc1cccc(c1)Nc1ncc(Cl)c(n1)N2)Nc1cccc2ccccc12 [Example B124, N-[6-Chloro-2,4,8,22-tetraazatetracyclo[14.3.1.1(3,7).1(9,13)]docosa-1(20),3(22),4,6,9(21),10,12,16,18-nonaen-12-yl]-N′-1-naphthylurea trifluoroacetate] | 3.9 nM | 4.6 nM | 33 nM | 13 nM | 17% | –
